Reference: patent US7429396B2, “Antifungal composition, its fungicidal effect on pathogenic dermatophytes, and process for inhibiting growth of fungi” (Bio-Botanica, Inc., priority 2003, dated 2008)

Test system: Aspergillus niger ATCC 16404
Assay: Macro-dilution broth susceptibility method (Example 6)
Type: cell-based
Method: The mold Aspergillus niger ATCC 16404 was selected for the antifungal testing and maintained on Sabouraud Dextrose Agar. Aspergillus niger is a mold that commonly causes opportunistic infections in humans. Spores are prevalent in soil and on decaying organic matter. Aspergillus niger is also a common cause of contamination in products. The organism was cultured in 10 ml of Tryptic Soy Broth for 7 days at 22° C. After incubation, 1 ml of mold culture was added to 10 ml of 0.1% Tween 80 solution in sterile saline to achieve a spore concentration of 0.5 McFarland (1×10^8 spores/ml). This concentration was determined by visual comparison to a 0.5 McFarland standard. […]
The final concentration of mold spores in each sample was 1×10^4-1×10^5 spores/ml. The prepared tubes of TSB were incubated at 37° C. for 5 days, and the results recorded at 3 and 5 days. […]
The results were scored in relation to the growth present in the negative control tube. […] Partial activity (P) was recorded when the sample tube of TSB was less turbid than the control tube, and now growth (I) was recorded when there was total inhibition and the broth in the tube appeared clear. When a result of (I) was scored, the MIC was established by performing the appropriate dilutions.

OCCc1ccccc1 [Phenylethyl Alcohol]
growth score (2.5 μl/ml): I | Minimum Inhibitory Concentration (MIC) (macro-dilution broth, Example 6): 2.5 μl/ml
